Laboratory results taken from patent US10265321B2, “Uses of salt-inducible kinase (SIK) inhibitors” (Dana-Farber Cancer Institute, Inc., priority 2014, dated 2019).
Read-outs that look alike come from different tables or passages of the source.

Experiments:
[1] = system: IL-10 production by zymosan-stimulated BMDCs; test: IL-10 up-regulation in zymosan-stimulated BMDCs (AlphaLISA/ELISA); format: cell-based, mouse
Experimental: (§1) Bone marrow-derived DCs were differentiated from C57BL/6 bone marrow in the presence of GM-CSF-conditioned media. CD11c^+ CX3CR1^hi myeloid cells and CD11c^+ CX3CR1^− DCs were isolated from the small intestine lamina propria of Cx3cr1^eGFP/+ mice (12). Detection of cell-surface Thy1.1 expression on BMDCs from 10BiT reporter mice was conducted as described previously (24). Cell viability was estimated by change in total cellular ATP levels using CellTiterGlo assays (Promega). Preparation of recombinant SIK proteins and IC50 measurements were conducted as described previously (21). Total RNA was extracted using a NucleoSpin 96 RNA isolation kit (Macherey-Nagel) followed by cDNA synthesis and multiplex RT-PCR using a microfluidic dynamic array (Fluidigm). The concentrations of TNF-α, IL-6, IL-10, IL-12p40, IL-1β and RANTES in culture supernatants were detected using a FlexSet Cytometric bead array (BD Biosciences). Alternatively, IL-10 secretion was quantified using ELISA (BD Biosciences) or AlphaLISA (PerkinElmer) assays. NO production was estimated based on nitrate content in culture medium using the Greiss reagent.
C57BL/6 mice were euthanized and bone marrow harvested from femurs and tibias as described previously (Graham D B, et al. (2007) An ITAM-signaling pathway controls cross-presentation of particulate but not soluble antigens in dendritic cells. The Journal of experimental medicine 204(12):2889-2897). BMDCs were differentiated DMEM supplemented with 2 mM GlutaMAX, 10% (vol/vol) FBS, penicillin, streptomycin and 2% mouse GM-CSF conditioned media derived from TOPO cells. Cultures were differentiated for 7 days and routinely analyzed for >90% CD11c (APC anti-CD11c clone HL3; BD Biosciences) positivity by flow cytometry before use in experiments. Lentiviral transduction of bone marrow cultures was conducted by addition of 293T culture supernatants containing lentiviral particles encoding the CREB dependent luciferase reporter construct or CRTC3 targeting or control shRNAs one day post-isolation. Stable integration of lentiviral shRNA constructs was selected by addition of puromycin (3 μg/mL) on day 4 post-transduction. After 2 days, stably transduced BMDCs were released from selection and used in subsequent assays. Unless otherwise indicated, cells were treated for 2 days with PGE2 (5 μM) or HG-9-91-01 (0.5 μM) or an equivalent concentration of DMSO (≤0.5%) and then stimulated for 18 hr with LPS (100 ng/mL), R848 (10 μg/mL) or zymosan (4 μg/mL).
BMDCs were seeded into black 384-well plates (Corning) at 20,000 cells/well in 40 μL complete DMEM using a Multidrop COMBI (Thermal Scientific) followed by incubation at 37° C. for 2 hr to allow for plate adherence. SIK inhibitors (100 nL/well) were pin-transferred from concentrated DMSO stocks using CyBi-Well Vario (CyBio) into duplicate plates. For each treatment plate, 32 out of 384 wells were pinned with DMSO as negative control and 32 out of 384 wells were pinned with PGE2 (5 μM final concentration). Two days after SIK inhibitor treatment, BMDCs were stimulated with zymosan (4 μg/mL final concentration) dispersed in culture medium (20 μL/well) using a Multidrop COMBI. After 18 hr, 5 μL of resulting supernatant was transferred from the culture plate to white 384-well AlphaLISA plates (Perkin Elmer) using a CyBi-Well Vario. IL-10 abundance in the supernatants was determined using an AlphaLISA assay (PerkinElmer) according to the manufacture's protocol and signal intensity measured using an EnVision multimode plate reader. SIK inhibitor activity was expressed as a % of the differences between the mean abundance of IL-10 in PGE2 versus DMSO wells on a per plate basis. Cell viability assays were conducted on the same tissue culture plates as the IL-10 assay. First media was removed and replaced by solution of 50% (vol/vol) CellTiter-Glo (Promega) in PBS. […]

[2] = system: BMDCs; test: Cell viability of BMDCs (CellTiter-Glo, cellular ATP); format: cell-based, mouse; conditions: Mus musculus, BMDC; zymosan-stimulated BMDCs; read-out: Viability loss EC50
Experimental: as §1
BMDCs were seeded into black 384-well plates (Corning) at 20,000 cells/well in 40 μL complete DMEM using a Multidrop COMBI (Thermal Scientific) followed by incubation at 37° C. for 2 hr to allow for plate adherence. SIK inhibitors (100 nL/well) were pin-transferred from concentrated DMSO stocks using CyBi-Well Vario (CyBio) into duplicate plates. For each treatment plate, 32 out of 384 wells were pinned with DMSO as negative control and 32 out of 384 wells were pinned with PGE2 (5 μM final concentration). Two days after SIK inhibitor treatment, BMDCs were stimulated with zymosan (4 μg/mL final concentration) dispersed in culture medium (20 μL/well) using a Multidrop COMBI. After 18 hr, 5 μL of resulting supernatant was transferred from the culture plate to white 384-well AlphaLISA plates (Perkin Elmer) using a CyBi-Well Vario. IL-10 abundance in the supernatants was determined using an AlphaLISA assay (PerkinElmer) according to the manufacture's protocol and signal intensity measured using an EnVision multimode plate reader. SIK inhibitor activity was expressed as a % of the differences between the mean abundance of IL-10 in PGE2 versus DMSO wells on a per plate basis. Cell viability assays were conducted on the same tissue culture plates as the IL-10 assay. First media was removed and replaced by solution of 50% (vol/vol) CellTiter-Glo (Promega) in PBS. Luminescence was read using an Envision multimode plate reader, and signal intensity calculated relative to DMSO control wells on a per plate basis.

[3] = Mus musculus, BMDC, zymosan-stimulated BMDCs, read-out: IL-10 induction EC50

SMILES	concentrations that suppressed/reduced zymosan-induced IL-10 production ([1]; BMDCs)	EC50 ([1]; BMDCs pre-treated 2 days, zymosan 18 hr, ELISA, read-out: EC50 of potentiation of zymosan-induced IL-10 production) [nM]	EC50 [1, 3] [nM]	EC50 [2] [nM]
COc1ccc(N(C(=O)Nc2c(C)cccc2C)c2cc(Nc3ccc(N4CCN(C)CC4)cc3)ncn2)c(OC)c1 [HG-9-91-01]	greater than 1 μM	~200	–	–
Cc1cccc(C)c1NC(=O)N1C/C=C\COc2cccc(c2)Nc2cc1ncn2 [I-1]	–	–	5620	10000
CCN1CCN(c2ccc(Nc3cc(-n4ccnc4Nc4c(C)cccc4C)ncn3)cc2)CC1 [II-1, 6-(2-((2,6-dimethylphenyl)amino)-1H-imidazol-1-yl)-N-(4-(4-ethylpiperazin-1-yl)phenyl)pyrimidin-4-amine]	–	–	1460	19.5
